The data set is described as follows: Very toxic (VT; LD50≤50mg/kg vs. all others). The conditions noted are these: rat; in vivo; po. The text has this:
[…]The data set underlying the modeling effort for this project was initially compiled by NICEATM and U.S. EPA’s CCTE. Briefly, LD50 data were collected from rat acute oral systemic toxicity tests, including limit tests, ranges/confidence intervals, and discrete LD50 values. The full data set included 21,200 LD50 entries for 15,688 substances. […] Data were reviewed to ensure that LD50 values with obvious errors in the extracted data such as unit conversion errors (e.g., comma and decimal separator misplacements) were either fixed or removed. After this review, 16,209 LD50 values remained. Many of the chemicals represented had multiple LD50 entries, requiring that a single representative value per Chemical Abstracts Service Registry Number (CASRN) identifier be defined to facilitate modeling efforts. Based on ATWG feedback and to define the representative LD50 as a protective value while accounting for the distribution across multiple LD50s, the median of the lowest quartile was computed using only discrete LD50 values (omitting limit test data and range and confidence interval data). A detailed summary of the data compilation is available online on the NICEATM webpage dedicated to the collaborative modeling project (NTP 2020).
[…][…] For categorical designations, limit test and range/confidence interval LD50 data were integrated wherever possible. As such, the number of chemicals with end point values/calls varies across the modeling end points (Table 3) based on whether chemicals had representative LD50 values and/or other data. If a chemical had both, the representative value was used to determine categorical calls rather than limit test data. Some data were useable only for certain end points and categories depending on the thresholds. For example, ranges that spanned multiple hazard categories were considered only for the binary (very toxic/nontoxic) end points and omitted from rendering a determination for hazard category assignment.
[…]The final data set comprising 11,992 chemicals was split into training and evaluation sets […], respectively. This process was performed semirandomly by ordering chemicals based on the five end points (categorical and continuous LD50 values) and partitioning every fourth record into the evaluation set accordingly. This approach was taken to ensure an equivalent distribution of the LD50 values and the different hazard categories between the training and the evaluation sets without supervised sampling of the chemicals based on structures (Figure 1A). The sources of the chemical structures were also kept equivalent between the two sets, with chemical structures obtained from DSSTox, being the highest quality, representing over 75% of each set (Figure 1B).

Experimental findings from the CATMoS acute toxicity set (Mansouri et al. 2021) are described below.

In the case of `CSc1c(C)cc(O)cc1C`, the very_toxic entry is reported as “FALSE (not_very_toxic)”. Regarding `O=C1NC(=O)C2CCCC12` (stereo unspecified), the very_toxic entry was “FALSE (not_very_toxic)”. As to `CCCCCCCCCCCCCC[N+](C)(C)[O-]`, the very_toxic entry was “FALSE (not_very_toxic)”. For `Nc1ccc(N)c2c1C(=O)c1c(N)ccc(N)c1C2=O` the value was “FALSE (not_very_toxic)”. Take `COCCOCCOCCOB(OCCOCCOCCOC)OCCOCCOCCOC`: the very_toxic entry is “FALSE (not_very_toxic)”.

Turning to `CCCCCCCCCCCCCCCCCCOP1OCC2(CO1)COP(OCCCCCCCCCCCCCCCCCC)OC2` (stereo unspecified), the very_toxic entry is recorded as “FALSE (not_very_toxic)”.
